Source: patent US20100247461A1, “ANTI-INFLAMMATORY COMPLEXES” (Signum Biosciences, Inc., priority 2009, published 2010)
≈ marks a conversion by molar mass, not a printed value.

Tested on: Propionibacterium acnes (strain ATCC 6919)
Experiment: Inhibition of Propionibacterium acnes growth
Assay type: cell-based
Conditions: Cutibacterium acnes, ATCC6919, 72 h, 72 hours, anaerobic, absorbance 600 nm, 1×10^6 CFU per mL; read-out: IC50 (inhibition of P. acnes growth)
Method: The assay for the inhibition of growth of Propionibacterium acnes bacteria is described elsewhere (Nakatsuji et al., J Invest Dermatol, 2009, 129: 2480-2488). In brief, the strain ATCC 6919 of P. acnes (American Type Culture Collection, Manassas, Va.) was cultured on Brucella agar (R01254, Remel, Lenexa, Kans.) supplemented with 5% (v/v) defibrinated sheep blood, vitamin K (5 mg/ml, Remel, Lenexa, Kans.), and hemin (50 mg/ml, Remel, Lenexa, Kans.), under an anaerobic condition using Gas-Pak (BD, Sparks, Md.) at 37° C. A single colony was inoculated in Reinforced Clostridium Medium (Oxford, Hampshire, England) and cultured at 37° C. under the anaerobic condition. Each of the inventive complexes—AFC-Sr, AFC-Ag and AFC-Zn as well as AFC were dissolved in 100% (v/v) DMSO. Samples of each inventive complex, AFC and a solution of benzoyl peroxide (“BPO”) were then each incubated with an inoculum of P. acnes at a concentration of 1×10^6 CFU per mL in Reinforced Clostridium Medium in a 96-well microplate (100 μL per well) under anaerobic conditions for 72 hours. Samples of each were tested at final concentrations per well of 0.25 μg/mL, 0.5 μg/mL, 1.0 μg/mL, 1.95 μg/mL, 3.9 μg/mL, 7.8 μg/mL, 15.625 μg/mL, 31.25 μg/mL, 62.5 μg/mL, 125 μg/mL, 250μg/mL, and 500 μg/mL. A control well received only 5% (v /v) of DMSO in place of a sample of an inventive complex. After 72 hours incubation under anaerobic conditions, the P. acnes cultures in the 96-well microplate were mixed well and then absorbance readings at 600 nm were taken to determine bacterial growth. […] Growth curves of P. acnes determined for BPO, AFC, AFC-Sr, AFC-Ag and AFC-Zn are depicted in FIG. 3.

Q: With `CC(=O)N[C@@H](CSC/C=C(\C)CC/C=C(\C)CCC=C(C)C)C(=O)O` [AFC, N-acetyl-S-farnesyl-L-cysteine, reference compound] as the compound, how does the IC50 read?
A: Its IC50 is 12.9 µg/mL (≈ 35.1 µM).
